Key:
[1] = tested on: cavernosalen glatten Muskulatur; test: Organ bath contraction study with corpus cavernosum strips (phenylephrine-induced contraction); set-up: species or system Kaninchen; settings: for Relaxation der kavernösen, glatten Muskulatur: Kaninchen, phenylephrine-precontracted tissue
Protocol: Männliche New Zealand White-Kaninchen (Gewicht: 2,5-3,0 kg) wurden mit CO2-Gas eingeschläfert. Das cavernöse Gewebe wurde beim Sezieren in eine HEPES-gepufferte Lösung (20°C, pH 7,4) eingebracht. Die oben liegende Skelettmuskulatur wurde vorsichtig entfernt, um nicht die darunterliegende Tunica albuginea zu beschädigen. Im proximalen Ende der Tunica wurde ein Schnitt ausgeführt, während sie distal erweitert wurde. Dann wurde das Corpus Cavernosum bilateral aus der Tunica herausgelöst.
Für menschliches Gewebe wurde das Verfahren zum Ernten von Gewebe vom Institutional Review Board for Human Studies am Boston University Medical Center genehmigt. Cavernöses Gewebe wurde von Patienten erhalten, die sich der Implantation einer Penisprothese zur Behandlung einer erektilen Dysfunktion unterzogen. Im Operationssaal wurden Biopsien der Corpora cavernosa sofort in eisgekühlte (4°C) physiologische Salzlösung gelegt und zum Labor transportiert. Gewebestreifen mit einer Größe von etwa 3 mm x 3mm x 10 mm wurden zugeschnitten und für Organbadstudien gemäß einem ähnlichen Verfahren wie dem nachfolgend beschriebenen präpariert.
Längsschnitte des Corpus cavernosum wurden in Organbäder gelegt, die folgendes (in mM) enthielten: 118 NaCI, 4,7 KCI, 1,2 KH2PO4, MgSO4, 24,9 NaCO3, 5,5 Glucose, 2,0 Na-Pyruvat und 2,0 CaCl2. Die Streifen cavernöser, glatter Muskulatur wurden mit 2 Gramm gestreckt und mit einem Gemisch von 95% O2 und 5% CO2 während zwei Stunden äquilibriert, bevor mit dem Versuchsverfahren begonnen wurde. Dann wurden die Gewebe an Kraftwandler (Grass FT03) angeschlossen. Die Spannungsmessungen wurden mit einem MP100-System und der AcqKnowledge-Software (Biopac) digital aufgezeichnet.
Die Gewebe wurden mit Indomethacin (10 µM) vorbehandelt, um Cyclooxygenaseeffekte zu beseitigen. Durch Zugabe von Phenylephrin (10 µM) zu den Organkammern wurden Kontraktionen induziert. Nachdem die Phenylephrin-induzierte Kontraktion einen dauerhaften Zustand erreicht hatte, wurde das tricyclische Pteridinon (Pt) (Fig. 1a und 1b) oder der Stickstoffoxid-Donor S-Nitroso-N-acetylpenicillamin (SNAP) zugegeben (Fig. 2).

Katzen = test: Cat model of male erectile dysfunction (intracavernous pressure, systemic blood pressure); format: in vivo
Protocol: Geschlechtsreife männliche Katzen (Körpergewicht 2,9-4,6 kg) wurden mit α-Chloralose (60 mg/kg i.m.) narkotisiert. Dann wurden Hartmansche Lösung und eine Dextroselösung bei […] über die antekubitale Vene infundiert. Die Beatmung wurde über eine an einen Tierventilator (Harvard Apparatus Ltd., Boston MA) angeschlossene Tracheotomie sichergestellt. Pancuroniumbromid (0,3 ml/kg) wurde als Muskelrelaxans infundiert. Nach Bedarf wurden zusätzliche Dosen von α-Chlorase und Pancuroniumbromid gegeben, um ein gleichbleibendes Anästhesie-Niveau beizubehalten.
In der inneren Carotid-Arterie wurde ein zentraler Katheter gelegt, um eine Arterienblut-Gasanalyse (ABGA) durchzuführen und den systemischen Blutdruck in der Arterie aufzuzeichnen. Eine 23 G-Nadel wurde in das Corpus cavernosum eingeführt, um die Veränderungen des intracavernösen Drucks (ICP) zu messen. Sowohl der systemische, arterielle Blutdruck als auch der ICP wurden mittels eines Druckwandlers (Gilson P23XL-1, physiologischer Druckwandler, Ohmeda, Kanada), der an einen Polygraphen (Grass Model 7D, Quincy, MA, USA) angeschlossen war, gemessen. Zur lokalen Injektion von Versuchsverbindungen wurde ein Zweig der inneren Pudendalarterie auf einer Seite mit einem länglichen Polyethylenschlauch (PE-10-Schlauch, Original-Innendurchmesser 0,25 mm, Außendurchmesser 0,76 mm) retrograd mikrokanüliert. Dann wurden zur Verabreichung der Wirkstoffe (jeweils 0,1 ml) in den Penis die übrigen Zweige, bis auf die Penisarterie, ligiert. Mit geeigneten Ventilator-Einstellungen (z.B. Tidalvolumen 10 ml/kg; Atmungsrate 15-20/Min.) wurde eine Normoxie (pH > 7,25, PO2 > 60 mmHg, PCO2 < 40 mmHg) erzeugt und mit ABGA und einem mit der ausgeatmeten Luft verbundenen Capnometer (Modell 2200, Traverse Medical Monitors, USA) überprüft. Um die Volumeneffekte von Lösungsmitteln zu beurteilen, wurden destilliertes Wasser und normale Kochsalzlösung intraarteriell infundiert. Intraarterielles Wasser und Kochsalzlösung hatten selbst bei einem Bolus keinen Effekt auf den intracavernösen Druck (ICP).
Die Lösungen des tricyclischen Pteridinon wurden unter Verwendung einer 1%igen 6N HCI- und einer 5%igen DMSO-Lösung hergestellt. Papaverin (50 mg) + Phentolamin (5 mg) (Bimix) wurde in 5 ml mit 5% DMSO/Rest Kochsalzlösung hergestellt. Jedes Arzneimittel wurde als Bolus von 0,1 ml und 0,05 ml heparinisierter Kochsalzlösung zum Spülen infundiert.
Der Grund-ICP, ΔICP (d.h. die reine Veränderung des Grund-ICP) und Veränderungen des systemischen Blutdrucks wurden nach der intraarteriellen Injektion aufgezeichnet. Alle Daten wurden mittels eines Student's t-Test beurteilt, wobei p<0,05 als signifikant galt. Die Daten priapischer Episoden wurden bei den Berechnungen ausgeschlossen.

[2] = Pharmacokinetic experiments, plasma levels after oral administration; format: in vivo; settings: species not given
PDE IV = test: PDE subtype profile: inhibition of isolated PDE isozyme; format: biochemical, Ratten; settings: PDE IV aus Rattenniere
Protocol: (§1) Die verschiedenen Formen cyclischer Nukleotidphosphodiesterasen (PDE) wurden mit üblichen Methoden isoliert. Die PDE-lsozyme wurden aus den folgenden Quellen isoliert: PDE I und PDE V aus Rinder-Aorta, PDE II aus dem linken Ventrikel von Ratten, PDE IV aus Rattenniere und PDE III aus menschlichen Plättchen.
(§2) Die PDE-Aktivität wurde in einem Reaktionsmedium gemessen, das 40 mM Tris-HCI (pH 8,0), 5 mM MgCl2, 1 mM Dithiothreitol und 0,2 µM [^3H] cyclisches GMP enthielt. Das tricyclische Pteridinon wurde in DMSO (2,5%) gelöst. Bei dieser DMSO-Konzentration wurde die Enzymaktivität zu etwa 10% inhibiert. Die IC50-Werte für das tricyclische Pteridinon wurden anhand von Dosis-Wirkungs-Kurven bestimmt, bei denen die Konzentration im Bereich von 1 nM bis 10 µM (ganze log-Inkremente) lag. Für jedes untersuchte PDE-Isozym wurden mindestens zwei IC50-Bestimmungen an verschiedenen Tagen durchgeführt.

PDE VI = test: as above; format: biochemical; settings: source of PDE VI not given
Protocol: as §2

[3] = tested on: Macaca fascicularis-Affen; test: Monkey model of male erectile dysfunction (intracavernous pressure, blood pressure); format: in vivo
PDE III = molecular target: T1, PDE III (Homo sapiens, UniProt Q14432); test: PDE subtype profile: inhibition of isolated PDE isozyme; format: biochemical; settings: PDE III aus menschlichen Plättchen
T1 construct: Die PDE-lsozyme wurden aus den folgenden Quellen isoliert; from tissue; host or cells: human platelets
Protocol: as §1, §2

PDE V = molecular target: T2, PDE V (Bos taurus, UniProt Q28156); test: as above; format: biochemical; settings: PDE V aus Rinder-Aorta
T2 construct: Die PDE-lsozyme wurden aus den folgenden Quellen isoliert; from tissue; host or cells: bovine aorta
Protocol: as §1, §2

PDE I = test: as above; format: biochemical; settings: PDE I aus Rinder-Aorta; 0,2 µM [3H] cyclisches GMP
Protocol: as §1, §2

[4] = tested on: Macaca fascicularis-Affen; test: Monkey model of male erectile dysfunction (intracavernous pressure, blood pressure); format: in vivo; settings: for Maximaler Druck / Mittlerer Druckanstieg: intracavernous bolus 0,5 ml, given after nitroprusside response returned to baseline
Protocol: Das tricyclische Pteridinon wurde Macaca fascicularis-Affen als intracavernöse Bolusinjektion (0,5 ml, mit 0,5 ml Kochsalzlösung-Flush) verabreicht. Die Auswirkungen auf den intracavernösen Druck wurden mitlaufend gemessen und mit denen des Stickstoffoxid-Donors Nitroprussid (SNP oder NP) verglichen. Stickstoffoxid induziert eine Erektion, indem es als Guanylatcyclase-Agonist wirkt.
Die abschließende Reihe der in vivo-Versuche an Affen untersuchte die Effekte des tricyclischen Pteridinon bei intravenöser Verabreichung (1 und 3 mg/kg) 15 Minuten vor der intracavernösen Injektion von Nitroprussid (10^-5 M). Diese Vorgehensweise wurde gewählt, um zu bestimmen, ob die "systemische Verabreichung" von tricyclischem Pteridinon die Nitroprussid-induzierte, erektile Reaktion wirksam verstärkt.

[5] = i.v. bolus injection 0,5 mg/Tier

T1 sequence (Q14432 whole entry): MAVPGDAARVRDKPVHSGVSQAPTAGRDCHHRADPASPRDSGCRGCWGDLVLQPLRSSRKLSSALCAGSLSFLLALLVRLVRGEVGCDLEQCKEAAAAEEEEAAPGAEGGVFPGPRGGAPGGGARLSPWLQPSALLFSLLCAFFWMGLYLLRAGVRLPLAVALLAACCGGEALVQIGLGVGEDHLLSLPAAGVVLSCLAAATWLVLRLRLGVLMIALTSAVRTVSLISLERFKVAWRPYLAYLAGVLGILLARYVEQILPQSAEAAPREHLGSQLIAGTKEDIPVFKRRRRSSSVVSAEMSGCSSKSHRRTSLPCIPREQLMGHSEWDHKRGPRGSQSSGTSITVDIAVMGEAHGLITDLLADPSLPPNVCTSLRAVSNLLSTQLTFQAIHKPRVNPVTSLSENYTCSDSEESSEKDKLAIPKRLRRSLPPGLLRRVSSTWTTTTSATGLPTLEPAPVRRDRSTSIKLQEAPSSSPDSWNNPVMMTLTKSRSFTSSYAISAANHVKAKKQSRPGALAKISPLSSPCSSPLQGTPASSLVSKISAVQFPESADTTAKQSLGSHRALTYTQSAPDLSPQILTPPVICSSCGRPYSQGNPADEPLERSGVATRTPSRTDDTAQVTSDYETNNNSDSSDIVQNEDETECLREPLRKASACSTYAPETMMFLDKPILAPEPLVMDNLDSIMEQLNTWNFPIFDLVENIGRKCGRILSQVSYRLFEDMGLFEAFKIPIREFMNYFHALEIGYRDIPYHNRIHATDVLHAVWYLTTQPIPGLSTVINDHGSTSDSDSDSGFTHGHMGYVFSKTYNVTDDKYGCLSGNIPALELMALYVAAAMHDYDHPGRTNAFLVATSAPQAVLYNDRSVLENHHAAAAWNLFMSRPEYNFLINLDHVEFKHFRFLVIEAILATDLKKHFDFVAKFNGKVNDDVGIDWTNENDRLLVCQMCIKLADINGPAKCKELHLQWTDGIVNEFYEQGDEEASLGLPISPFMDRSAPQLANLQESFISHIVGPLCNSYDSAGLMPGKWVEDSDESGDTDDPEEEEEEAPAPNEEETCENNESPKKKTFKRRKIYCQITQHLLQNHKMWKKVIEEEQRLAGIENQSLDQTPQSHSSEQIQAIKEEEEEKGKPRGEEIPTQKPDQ

CC(=O)N[C@H](C(=O)O)C(C)(C)SN=O [SNAP, S-Nitroso-N-acetylpenicillamin, reference compound]
Relaxation der kavernösen, glatten Muskulatur ([1]; Fig. 2): unmittelbare Relaxation

CCc1nc(C)cn1-c1nc(C(C)C)c2[nH]c(=O)c3c(C)nc(CC)n3c2n1 [tricyclisches Pteridinon, 9-Ethyl-2-(2-ethyl-4-methyl-1H-imidazol-1-yl)-7-methyl-4-(2-propyl)imidazo[5,1-h]pteridin-6(5H)on]
Relaxation der kavernösen, glatten Muskulatur ([1]; Fig. 2): unmittelbare Relaxation | IC50 ([1]; Phenylephrin 10 µM, Indomethacin 10^-5 M, Fig. 1 (Kaninchen, and tissue of impotent patients), read-out: IC50-Wert für die Inhibierung der Phenylephrin-induzierten Kontraktion): ~1000 nM | Stärke im Vergleich zu SNAP ([1]; in vitro model, Fig. 2): stärker | Erektionen steif (visuelle Bestimmung) (Katzen; 0,1 mg/Tier): nicht als steif | Erektionen steif (Katzen; higher doses (Fig. 3: 0,3 and 0,5 mg/Tier)): steifen Erektion | Dauer der vorübergehenden Spitzenabfälle des systemischen Arterienblutdrucks (Katzen; [5]): ≤ 5 Minuten | Spitzenabfälle des systemischen Arterienblutdrucks (Katzen; [5]): 15,8 mmHg | Anstieg des ICP (Katzen; local intra-arterial administration, 0,1 mg/Tier, p<0,01): 5,5 mmHg | Dosis, die den ICP erhöht (Katzen; local intra-arterial injection, 0,1 ml bolus, initial dose-finding study): ≥ 0,0038 mg | ICP, Dosisabhängigkeit (Katzen; local intra-arterial injection, Fig. 3): erhöhte in dosisabhängiger Weise signifikant den ICP | Zeit bis zu signifikanten Plasmamengen nach oraler Verabreichung [2]: ≤ 30 Minuten | IC50 (PDE IV): 74 nM | IC50 (PDE VI): 56 nM | Dauer des Nitroprussid-induzierten Anstiegs des cavernösen Drucks ([3]; 1 mg/kg given simultaneously with nitroprusside): verdoppelte | Dauer des Nitroprussid-induzierten Anstiegs des cavernösen Drucks ([3]; 3 mg/kg given simultaneously with nitroprusside): nahezu verdreifachten | IC50 (PDE III): > 10 µM | IC50 (PDE V): 35 nM | IC50 (PDE I): 5.8 nM | Anstieg des cavernösen Drucks ([4]; Affen, given before administration of nitroprusside): keinen anhaltenden Anstieg | intracavernöser Druck nach systemischer Verabreichung ([4]; Affen, i.v. 1 and 3 mg/kg, Fig. 5): wirksam erhöht | Blutdrucksenkung ([4]; Affen, i.v. administration, 1 and 3 mg/kg): 20-40 mmHg | Maximaler Druck ([4]; Affen, 10^-4 Molar): 165 (1) cm H2O | Mittlerer Druckanstieg ([4]; Affen, 10^-4 Molar): 62 (1) Δ cm H2O | Maximaler Druck ([4]; Affen, 10^-5 Molar): 103 (3) cm H2O | Mittlerer Druckanstieg ([4]; Affen, 10^-5 Molar): 51 (3) Δ cm H2O | Maximaler Druck ([4]; Affen, 10^-6 Molar): 95 (2) cm H2O | Mittlerer Druckanstieg ([4]; Affen, 10^-6 Molar): 41 (2) Δ cm H2O | Adverse finding after pretreatment ([4]; one monkey, pretreatment 3 mg/kg followed by nitroprusside 10^-5 M i.c.): Priapismus
